US10442791B2, “DNA-PK inhibitors” (Vertex Pharmaceuticals Incorporated, priority 2012, dated 2019)

Each molecule was assayed against DNA-PK (Homo sapiens, UniProt P78527) (assay: DNA-PK inhibition assay (radiometric 33P-ATP kinase assay)). Details: 100 μM ATP; competitive tight-binding fit.
Type: biochemical
Experimental: Compounds were screened for their ability to inhibit DNA-PK kinase using a standard radiometric assay. Briefly, in this kinase assay the transfer of the terminal ^33P-phosphate in ^33P-ATP to a peptide substrate is interrogated. The assay was carried out in 384-well plates to a final volume of 50 μL per well containing approximately 6 nM DNA-PK, 50 mM HEPES (pH 7.5), 10 mM MgCl2, 25 mM NaCl, 0.01% BSA, 1 mM DTT, 10 μg/mL sheared double-stranded DNA (obtained from Sigma), 0.8 mg/mL DNA-PK peptide ([…] obtained from American Peptide), and 100 μM ATP. Accordingly, compounds of the invention were dissolved in DMSO to make 10 mM initial stock solutions. Serial dilutions in DMSO were then made to obtain the final solutions for the assay. A 0.75 μL aliquot of DMSO or inhibitor in DMSO was added to each well, followed by the addition of ATP substrate solution containing ^33P-ATP (obtained from Perkin Elmer). The reaction was started by the addition of DNA-PK, peptide and ds-DNA. After 45 min. the reaction was quenched with 25 μL of 5% phosphoric acid. The reaction mixture was transferred to MultiScreen HTS 384-well PH plates (obtained from Millipore), allowed to bind for one hour, and washed three times with 1% phosphoric acid. Following the addition of 50 μL of Ultima Gold™ high efficiency scintillant (obtained from Perkin Elmer), the samples were counted in a Packard TopCount NXT Microplate Scintillation and Luminescence Counter (Packard BioScience). The Ki values were calculated using Microsoft Excel Solver macros to fit the data to the kinetic model for competitive tight-binding inhibition.
Work on CNC(=O)c1ccnc2c([C@H](C)CNc3cc(-c4cnc(CC5CCN(C(C)=O)CC5)nc4)ncn3)cccc12 [Compound 1071] yielded a Ki of under 30 nM.
Work on CNC(=O)c1ccnc2c([C@H](C)CNc3cc(-c4cnc(OC5CCN(C)CC5)nc4)ncn3)ccc(F)c12 [Compound 1073] yielded a Ki of under 30 nM.
With CNC(=O)CNc1ncc(-c2cc(NC[C@@H](C)c3cccc4c(C(=O)NC)ccnc34)ncn2)cn1 [Compound 1074] the Ki was under 30 nM.
In the case of CNC(=O)CNc1ncc(-c2cc(NC[C@@H](C)c3cccc4c(C(=O)NC)c(F)cnc34)ncn2)cn1 [Compound 1075], the Ki is reported as under 30 nM.
Work on CNC(=O)c1c(F)cnc2c([C@H](C)CNc3cc(-c4cnc(NCC(=O)N(C)C)nc4)ncn3)cccc12 [Compound 1076] yielded a Ki of under 30 nM.
Molecule CNC(=O)c1ccnc2c([C@H](C)CNc3cc(-c4cnc(NCC(=O)N(C)C)nc4)ncn3)cccc12 [Compound 1077] has a Ki of under 30 nM.
Work on CNC(=O)c1ccnc2c([C@H](C)CNc3cc(-c4cnc(NC5CCN(C)CC5)nc4)ncn3)cccc12 [Compound 1078] yielded a Ki of under 30 nM.
Molecule CNC(=O)c1c(F)cnc2c([C@H](C)CNc3cc(-c4cnc(NC5CCN(C)CC5)nc4)ncn3)cccc12 [Compound 1079] has a Ki of under 30 nM.
With CNC(=O)c1ccnc2c([C@H](C)CNc3cc(-c4cnc(NC5CCN(CC(F)(F)F)CC5)nc4)ncn3)cccc12 [Compound 1080] the Ki was under 30 nM.
In the case of CNC(=O)c1ccnc2c([C@H](C)CNc3cc(-c4cnc(N(C)C5CCN(C(C)=O)CC5)nc4)ncn3)cccc12 [Compound 1081], the Ki is reported as under 30 nM.
In the case of CNC(=O)c1c(F)cnc2c([C@H](C)CNc3cc(-c4cnc(N(C)C5CCN(CC(F)(F)F)CC5)nc4)ncn3)cccc12 [Compound 1082], the Ki is reported as under 30 nM.
For CNC(=O)c1ccnc2c([C@H](C)CNc3cc(-c4ccc(NC5CCN(CC(F)F)CC5)nc4)ncn3)cccc12 [Compound 1083], the Ki was under 30 nM.
For CNC(=O)c1c(F)cnc2c([C@H](C)CNc3cc(-c4ccc(NC5CCN(CC(F)F)CC5)nc4)ncn3)cccc12 [Compound 1084], the Ki was under 30 nM.
Work on CNC(=O)c1ccnc2c([C@H](C)CNc3cc(-c4ccc(NC5CCN(CC(F)(F)F)CC5)nc4)ncn3)cccc12 [Compound 1085] yielded a Ki of under 30 nM.
Work on CNC(=O)c1c(F)cnc2c([C@H](C)CNc3cc(-c4ccc(NC5CCN(CC(F)(F)F)CC5)nc4)ncn3)cccc12 [Compound 1086] yielded a Ki of under 30 nM.
In the case of CNC(=O)c1c(F)cnc2c([C@H](C)CNc3cc(-c4ccc(N(C)C5CCN(C)CC5)nc4)ncn3)cccc12 [Compound 1087], the Ki is reported as under 30 nM.
With CNC(=O)c1ccnc2c([C@H](C)CNc3cc(-c4ccc(N(C)C5CCN(C(C)=O)CC5)nc4)ncn3)cccc12 [Compound 1088] the Ki was under 30 nM.
Molecule CNC(=O)c1c(F)cnc2c([C@H](C)CNc3cc(-c4ccc(N(C)C5CCN(CC(F)F)CC5)nc4)ncn3)cccc12 [Compound 1089] has a Ki of under 30 nM.
Molecule CNC(=O)c1c(F)cnc2c([C@H](C)CNc3cc(-c4ccc(N(C)C5CCN(CC(F)(F)F)CC5)nc4)ncn3)cccc12 [Compound 1090] has a Ki of under 30 nM.
